Data: patent US20050037033A1, “Microbicidal compositions and methods and use” (priority 2003, published 2005)
Read-outs that look alike come from different tables or passages of the source.

Key:
Listeria monocytogenes = test: Aerobe inhibition assay; type: cell-based; conditions: 2 strains, read-out: Minimum Inhibitory Concentrations (MICs)
Protocol: (§1) The aerobic organisms were suspended into saline to the turbidity of the 0.5 McFarland standard, diluted 1:10, pipetted into the wells of the Steers replicator head, and stamped onto the Mueller Hinton agar plates containing the serial dilutions of the antimicrobials.
(§2) The anaerobes were incubated in an anaerobic chamber at 37° C. for 2 days; aerobes were incubated in ambient air at 36° C. for 20h.

K1 pneumoniae = test: Aerobe inhibition assay; type: cell-based; conditions: 2 strains
Protocol: as §1, §2

Peptrostrep. magnus = test: Anaerobe inhibition assay; type: cell-based; conditions: 2 strains, read-out: Minimum Inhibitory Concentrations (MICs)
Gardnerella vaginalis = test: Anaerobe inhibition assay; type: cell-based; conditions: 2 strains, read-out: Minimum Inhibitory Concentrations (MICs)
Prevotella intermedia = test: Anaerobe inhibition assay; type: cell-based; conditions: 2 strains, read-out: Minimum Inhibitory Concentrations (MICs)
[1] = test system: Prevotella melaninogenica; test: Anaerobe inhibition assay; type: cell-based; conditions: 2 strains, read-out: Minimum Inhibitory Concentrations (MICs)
[2] = test system: Lactobacilli (L. jensii, L. gasseri, L. acidophilus, L. salivarius); test: Lactobacillus Steers time-kill (TK) assay, all strains; type: cell-based
Clost perfringes = test: Anaerobe inhibition assay; type: cell-based, Clostridium perfringes; conditions: Clostridium, 2 strains, read-out: Minimum Inhibitory Concentrations (MICs)
Protocol: Working in an anaerobic chamber, the anaerobes were suspended into brucella broth to the turbidity of the 0.5 McFarland standard and pipetted into the wells of the Steers replicator head, removed from the chamber and stamped onto the supplemented Brucella agar plates containing the serial dilutions of the antimicrobials and the growth control plates. The final inoculum was 10^5 cfu/spot.
as §2

[3] = test system: C. trachomatis Serovar E elementary bodies; test: Chlamydia trachomatis inhibition assay; type: cell-based
Protocol: C. trachomatis Serovar E elementary bodies ([…]; 10^4 IFU) were incubated for 4 hours on ice with compound, the mixture was inoculated into HeLa cell monolayers, and incubated for 1 hour. The inoculum was removed, the medium changed and the cells incubated overnight (20-22 hours). The cells were removed, fixed, permeabilized, and the infected cells detected by fluorescently tagged antibody and flow cytometry.

Peptostrep tetradius = test: Anaerobe inhibition assay; type: cell-based; conditions: 1 strain, read-out: Minimum Inhibitory Concentrations (MICs)
C. glabrata = test: Aerobe inhibition assay; type: cell-based, Candida glabrata; conditions: Nakaseomyces glabratus; 3 strains; read-out: Minimum Inhibitory Concentrations (MICs)
Protocol: as §1, §2

[4] = test system: HIV-1 infected SupTi cells (strain IIIB); test: Cell to cell transmission assay (CTC); type: cell-based; conditions: Human immunodeficiency virus 1, IIIB, Series 2, P4-R5 cells, 2 hour incubation, read-out: 50% Effective Concentrations (IC50)
Protocol: Cell to cell transmission assay (CTC): HIV-1 infected SupTi cells (strain IIIB), killed prior to exposure, were incubated with compound and P4-R5 cells for 2 hours at 37° C., followed by washing and 48 hour incubation.

Peptostrep anaerobius = test: Anaerobe inhibition assay; type: cell-based; conditions: 1 strain, read-out: Minimum Inhibitory Concentrations (MICs)
spermatozoa = test: Sperm immobilization assay; type: cell-based
Protocol: To assess sperm-immobilizing activity, compounds were incubated with sperm for 30 seconds in two fold serial dilutions. Those dilutions that immobilized all screened spermatozoa were further diluted several times in buffer and incubated at 37° C., 5% CO2, for 1 h, to verify any possible recovery of motility. Only those dilutions (compound concentrations) that immobilized all spermatozoa with no recovery of motility were considered “positive” and used to calculate the compound's minimum effective concentration (MEC).

Cytotoxicity assay = type: cell-based
Protocol: The cells listed in Table 4 were incubated for the indicated period of time with different concentrations of ciclopiroxolamine and cell viability was measured by the 3-(4,5-dimethylthiazol-2-yl)-2,5-diphenyltetrazolium bromide (MTT) assay or by treatment with propidium iodide and fluorescence. Percent viability was calculated with respect to the viability of mock-exposed cells (cells incubated without compounds).
In the MTT assay, the effect of each agent on cell viability was determined using an assay in which dehydrogenases in viable cells cleave the compound 3-(4,5-dimethylthiazol-2-yl)-2,5-diphenyltetrazolium bromide (MTT), yielding a purple product (formazan) which can be measured spectrophotometrically (Pauwels et al., 1988). Cells were seeded into 96 well plates at a density of 3×10^4 cells/well 24 hours prior to introduction of the microbicides. Agents were diluted in as previously indicated. Agents were added to triplicate wells in half-log serial dilutions. Cells were incubated in the absence or presence of each agent at 37° C. under 5% CO2 and 90% humidity for 2 hours. At the conclusion of each experiment, cells were washed, replenished with fresh medium and incubated with MTT (250 μl/well) for 2 hours at 37° C. Following removal of the medium (by aspiration), intracellular formazan crystals were solubilized with 10% Triton X-100 in acidified isopropanol. The resulting solutions were assayed spectrophotometrically at 570 nm and corrected for non-specific absorption at 690 nm. In this assay, measured absorbance is proportional to the viable cell number, and inversely proportional to the degree of cytotoxicity.

[5] = test system: HIV-1 strain III-B (X4 strain); test: Viral entry/binding inhibition assay (VBI), strain IIIB; type: cell-based; conditions: Human immunodeficiency virus 1, Series 2, P4-R5 cells, 2 hour incubation, read-out: 50% Effective Concentrations (IC50)
Protocol: Viral entry inhibition assay (VBI): Cell-free HIV-1 (strain III-B: X4 strain; or strain BaL: R5 strain) was incubated with compound and P4-R5 cells for 2 hours at 37° C., followed by washing and 48 hour incubation.

Fuso. nucleatum = test: Anaerobe inhibition assay; type: cell-based; conditions: Fusobacterium nucleatum, 2 strains, read-out: Minimum Inhibitory Concentrations (MICs)
HIV-IRF = test: PC assay (cells pre-treated with compound, washed, then virus); type: cell-based; conditions: Human immunodeficiency virus 1, PM1, read-out: 50% Effective Concentrations (IC50)
Protocol: PC assay: Indicator T cells (PM-1; 10^5/well) were pre-treated with compound for 1 hour at 37° C., compound was removed by washing with 4 volumes of PBS, treated cells were added to immobilized virus (HIV-IRF; 10^3 TCID50) and incubated for 8 days.
In each of the assays above, viral replication was monitored after 8 days by measuring reverse transcriptase activity.

Porphyromonas levii = test: Anaerobe inhibition assay; type: cell-based; conditions: 2 strains, read-out: Minimum Inhibitory Concentrations (MICs)
Eubact lentum = test: Anaerobe inhibition assay; type: cell-based; conditions: 2 strains, read-out: Minimum Inhibitory Concentrations (MICs)

For `Cc1cc(C2CCCCC2)n(O)c(=O)c1.NCCO` [CO, 6-Cyclohexyl-1-hydroxy-4-methyl-2-(1H)-pyridone ethanolamine salt], the MIC (Listeria monocytogenes) was 40 µg/mL, the “Minimum Inhibitory Concentrations (MICs)” value (K1 pneumoniae) was 80 µg/mL and the MIC (K1 pneumoniae; read-out: Minimum Inhibitory Concentrations (MICs)) was 40 µg/mL. The MIC (Peptrostrep. magnus) was 40 µg/mL, the MIC (Gardnerella vaginalis) was 80 µg/mL and the MIC (Prevotella intermedia) was 40 µg/mL. The MIC [1] was 40 µg/mL, the “effect on lactobacilli (summary in words)” value [2] was “inhibits the growth of lactobacilli but does not kill them” and the MIC (Clost perfringes) was 40 µg/mL. For the same compound, the IC50 [3] was 1600 µg/mL, the IC50 ([3]; HeLa cell monolayers, flow cytometry) was 1630 µg/mL and the MIC (Peptostrep tetradius) was 40 µg/mL. It also gave an MIC (C. glabrata) of 20 µg/mL, an IC50 [4] of 97.4 µg/mL and an MIC (Peptostrep anaerobius) of 40 µg/mL. The “cytotoxicity towards spermatozoa” value (spermatozoa) was “very little cytotoxicity towards spermatozoa”, the “Sperm immobilization activity, MEC (minimum effective concentration)” value (spermatozoa; 30 seconds incubation with sperm) was “MEC: 1,200-8,800 μg/ml” and the CC50 at 2 h (Cytotoxicity assay; African green monkey, Vero cells, Series 4, 2 hour incubation) was over 200 µg/mL. It also gave a CC50 at 2 h (Cytotoxicity assay; human, P4-R5 cells, Series 2, P4-R5, 2 hour incubation, 100 μg/ml highest conc tested) of over 100 µg/mL, a CC50 at 2 h (Cytotoxicity assay; human, VK-2/E6E7 cells (vaginal epithelium cell line), Series 2, VK-2/E6E7, 2 hour incubation) of 100 µg/mL and an IC50 [5] of 45.5 µg/mL. It also gave an MIC (Fuso. nucleatum) of 40 µg/mL, an IC50 (HIV-IRF) of 0.96 µg/mL and an MIC (Porphyromonas levii) of 40 µg/mL. The MIC (Eubact lentum) was 40 µg/mL.
